Like-named read-outs stand apart in the source and are kept apart here. {3IABkFQ} = Iowa Black FQ quencher
Assays:
SH-SY5Y cells = assay: Fluorescence imaging of Cu^+ and Cu^2+ in live SH-SY5Y cells (PDTC, BCS, Aβ40); type: cell-based, human
[1] = Point mutation gel cleavage assay of Fe^3+ B12 DNAzyme and substrate (heat map); type: biochemical; conditions: 100 μM FeCl3, pH 5.5, overnight; for activity of mutated substrate strand normalized to original Fe^3+ B12 Substrate: original DNAzyme strand
Procedure: FIG. 5 depicts a heat map illustrating the impact of point mutations within the catalytic core of the Fe^3+ B12 DNAzyme, against the unaltered Fe^3+ B12 substrate strand for comparative analysis with 5 mM Bis Tris, 40 mM Sodium Acetate, 200 mM NaCl at pH 5.5 with 100 μM FeCl3. The reaction occurred overnight at room temperature and analyzed by polyacrylamide gel electrophoresis.
FIG. 6 depicts a heat map illustrating the impact of point mutations within the catalytic core of the Fe^3+ B12 Substrate strand, against the unaltered Fe^3+ B12 DNAzyme strand for comparative analysis with 5 mM Bis Tris, 40 mM Sodium Acetate, 200 mM NaCl at pH 5.5 with 100 μM FeCl3. The reaction occurred overnight at room temperature and analyzed by polyacrylamide gel electrophoresis.
Point mutations were intentionally introduced into the Fe^3+ B12 DNAzyme catalytic core, and subsequently assessed in comparison to the unaltered Fe^3+ B12 substrate strand under controlled reaction conditions. These conditions included a solution comprising 5 mM Bis Tris, 40 mM Sodium Acetate, 200 mM NaCl at pH 5.5, with concentrations of 250 nM for both the mutated B12 DNAzyme Strand and the FAM-labeled Original B12 Substrate Strand, along with 100 μM FeCl3. The reaction proceeded overnight at ambient temperature, followed by analysis via electrophoresis on a 15% denaturing gel.
Point mutations were intentionally introduced into the Fe^3+ B12 Substrate Strand's catalytic core, and subsequently assessed in comparison to the unaltered Fe^3+ B12 DNAzyme strand under controlled reaction conditions. These conditions included a solution comprising 5 mM Bis Tris, 40 mM Sodium Acetate, 200 mM NaCl at pH 5.5, with concentrations of 250 nM for both the Original B12 DNAzyme Strand and the FAM-labeled mutated B12 Substrate Strand, along with 100 μM FeCl3. The reaction proceeded overnight at ambient temperature, followed by analysis via electrophoresis on a 15% denaturing gel.

[2] = Copper sensor signal turn-on and background in solution (inactive controls, upgraded version); type: biochemical; conditions: for activity of inactive sequences to fluorophore labeled substrates: screening of Cu^2+ DNAzyme inactive sequences
Procedure: FIGS. 14A-14B depict fluorescence resulting of upgraded Cu DNAzyme. The concentration of Cu^2+ is 8 μM, the concentration of ascorbate is 50 μM.
Since the DNAzyme sensors are exposed to various nucleic acid enzymes in biological samples during imaging, it is common to have some extent of sensor degradation and dehybridization, which can increase the background signal. Although the study applied modifications to the end of DNA strands to minimize the exonuclease activities, the background could not be fully removed. Thus, it is critical to estimate the background signal levels for accurate background subtraction and more precise signal quantification.
In this iE design, the catalytic core sequence are converted into complement sequence of the original active sequences.

cultured cell lines = assay: Iron redox changes in cultured cell lines with ferroptosis inducers and NCOA4 regulators; type: cell-based
HepG2 or Hela cells = assay: Simultaneous imaging of labile Fe^2+ and Fe^3+ in living cells treated with Tf or DFO; type: cell-based; conditions: treated cells
Procedure: For delivery of DNAzyme sensors using PEI (66, 67), the corresponding Fe(II)-H5-ErS, Fe(II)-H5-iErS, Fe(III)-B12-ErS, and Fe(III)-B12-iErS (final concentration of 10 μM) were mixed in the Fe^2+ buffer and Fe^3+ buffer separately. The mixtures were annealed at 95° C. for 5 min and stored at room temperature to allow full hybridization. PEI (25 kDa) was dissolved in water at 1 mg/ml. […] The normal cell medium was replaced with iron-deficient medium before the PEI-ErS or PEI-iErS was added to the cells grown in the plates.
After incubating HepG2 cells with PEI-ErS or PEI-iErS complex for 4 hours, cells were washed with phosphate-buffered saline (PBS) twice to remove excess amounts of complexes in medium. Then, the cells were stained by Hoechst 33258 for 15 min. Images were obtained using a Zeiss LSM 880 confocal microscope at 63× oil objective lens with numerical aperture 1.40 and immersion medium Immersol 518 F (Zeiss) at the UIUC IGB Core Facilities. Florescence emission of Hoechst 33258 was measured over 450 to 500 nm with excitation at 401 nm. Fe(II)-H5 was excited by 488 nm and measured over 500 to 550 nm, and Fe(III)-B12 was excited at 633 nm and measured over 640 to 700 nm. A laser power of 67% and pinhole size of 1 […] (AU) were used for the cellular images. Acquired images were analyzed by ImageJ using JACoP (88, 89). No background subtraction, Z-stacks, Gaussian blur filter, or change thresholds were performed for visualizing the figures. For cell fluorescence quantification, the study quantified the average fluorescence signals intensity in five cells (for TurboFect transfected cells) or five LysoTracker-labeled regions in different cells (for PEI transfected cells), per picture and three pictures per group with Image J (88), for the statistical comparison between groups.
Simultaneous imaging of labile Fe^2+ and Fe^3+ in living cells: HepG2 or Hela cells were cultured in glass-bottom dishes until about 70% confluence. The cells were pretreated with iron-deficient MEM containing either 100 μM DFO, 100 μM ferric ammonium citrate, […] holo-Tf, or 50 μM Tf for 4 hours, and then, the medium was replaced with an iron-deficient MEM containing PEI-ErS or PEI-iErS complexes or Opti-MEM containing 1 μl of TurboFect transfection reagent as described above for 4 hours. Before imaging, the cells were stained by LysoTracker Red and Hoechst 33258 for 15 min. After washing with PBS, the cells were incubated in iron-deficient MEM or regular DMEM, respectively, during the imaging.
Data processing and statistical analysis: To have a direct comparison of the iron amount between groups, the background signals were normalized by subtracting the fluorescence signals in iErS groups from the ErS groups (F-F0). No Z-stacks or change thresholds were used for statistical analysis. Graphs were plotted with GraphPad (GraphPad Software Inc.) or Origin (OriginLabs Corporation) and correspond to a single experiment. Bars represent means±SEM. Two-tailed distribution and two-sample equal variance t test were used for analyzing significance. Dixon's Q tests were performed to identify and exclude outliners. *P<0.05, **P<0.01, and ***P <0.001. […] The presented data described the quantification from single representative replicates from those biological replicates.

[3] = PAGE gel activity assays of Fe^2+ H5 DNAzyme (cleavage site, truncation, pH, mutation combinations, selectivity); type: biochemical; conditions: original FAM-labeled substrate, 100 μM FeCl2, 2 hours, room temperature
Text: RNA Cleavage Dependence of Fe^2+ H5 and Fe^3+ B12 DNAzymes: To investigate the Fe^2+ H5 and Fe^3+ B12 DNAzymes, various cleavage site modifications were incorporated into the substrate strands. The original Fe^2+ H5 DNAzyme was combined with Fe^2+ H5 substrate strands containing either a 2′-hydroxyl (2′OH), 2′-hydrogen (2′H), or 2′O-methyl (2′OMe) at the cleavage site. The original Fe^2+ H5 DNAzyme cleaves the Fe^2+ H5 substrate strand containing 2′OH at the cleavage site in the presence of Fe^2+ under anaerobic conditions. […] Similarly, the original Fe^3+ B12 DNAzyme was combined with Fe^3+ B12 substrate strands containing either 2′OH, 2′H, or 2′OMe at the cleavage site. The original Fe^3+ B12 DNAzyme cleaves the Fe^3+ B12 substrate strand containing 2′OH at the cleavage site in the presence of Fe^3+. […] These findings highlight the critical role of the 2′OH group at the cleavage site in enabling DNAzyme activity for both Fe^2+ H5 and Fe^3+ B12 systems, as substitutions with 2′H or 2′OMe impede cleavage.
Truncations of Fe^2+ H5 and Fe^3+ B12 DNAzymes' Binding Arms: To further investigate the Fe^2+ H5 and Fe^3+ B12 DNAzymes, the DNAzymes were truncated at the 5′ and 3′ ends and tested using the FAM-labeled original substrate strand through activity assays assessed by PAGE gel. The activity of the Fe^2+ H5 DNAzyme with the original substrate strand remains relatively unchanged when 1 or 2 nucleotides are truncated from either the 3′ or 5′ end. […] The activity of the Fe^3+ B12 DNAzyme with the original substrate strand is maintained when 1 or 2 nucleotides are truncated from the […]. A notable reduction in relative intensity occurs when 3, 4, or 5 nucleotides are truncated from the 5′ end. Additionally, truncation of 1, 2, or 3 nucleotides from the 3′ end also results in a decrease in relative intensity.
pH Dependency of Fe^2+ H5 and Fe^3+ B12 DNAzymes: To further investigate the impact of reaction conditions on catalytic activity, the study evaluated the influence of pH system. For the Fe^2+ H5 DNAzyme, the study assessed cleavage efficiency across a pH range of 6.0 to 7.5 in MOPS, MES, Bis-Tris, or Tris under anaerobic conditions with 100 μM FeCl2.
Combination of Fe^2+ H5 DNAzyme strand Improvements: Given the enhanced activity observed with several point mutations in the Fe^2+ H5 DNAzyme strand, the study investigated whether combinations of these point mutations would further improve the DNAzyme's activity. The study designed 41 combinations of the 6-point mutations located at positions 39 (A39T and A39G), 40 (A40C), 51 (G51C), 52 (C52G), and 54 (T54C), along with the original Fe^2+ H5. Each sequence was tested with the original FAM-labeled Fe^2+ substrate strand in the presence of 100 μM FeCl2 for 2 hours at room temperature. […] Certain combinations of mutations enhance activity, while others diminish it, indicating interactions that are not merely additive. The specific positions of the mutations play a critical role in determining the overall activity, with some combinations inducing beneficial conformational changes and others disrupting key structural elements. These findings highlight the importance of understanding the contextual interplay of mutations for optimizing DNAzyme performance. The identified combinations that increase activity offer valuable insights for the future engineering of more efficient DNAzyme variants.
Combining Enhanced Fe^2+ H5 and Fe^3+ B12 DNAzymes Single Point Mutations: To assess the potential additive effects of combining enhanced Fe^2+ H5 DNAzyme strands with substrate strands, the study evaluated the relative intensities of point mutations within these strands. Reactions were conducted in a buffer solution containing 25 mM Bis-Tris, 200 mM NaCl at pH 6.5, with 250 nM each of the mutated H5 DNAzyme strand and the FAM-labeled mutated H5 substrate strand, and 100 μM FeCl2. […]

Molecule: Amyloid-β (1-40) peptide [Aβ40]
- fluorescence signals of intracellular Cu^+ and Cu^2+ DNAzyme (SH-SY5Y cells; pretreated 24 h with monomers, oligomers and fibrils): enhanced

Molecule: Fe^3+ B12 DNAzyme C20T (GCGGCATGCGCGTTTGCGGTACCTAAACGCTCCTAATAGAG; DNA, backbone not given here)
- activity of mutated DNAzyme strand normalized to original Fe^3+ B12 DNAzyme ([1]; FAM-labeled original substrate): heightened activity

Molecule: Fe^3+ B12 Substrate A14G (CTCTATTAGGGAGGCTCGCATGCCGC; listed as DNA, chemistry not fully specified)
- activity of mutated substrate strand normalized to original Fe^3+ B12 Substrate [1]: heightened activity

Molecule: Cu2 iE polyT 3IBFQ: inactive enzyme strand (TTTCGCCATCTTCTTTTTTTTATAGTGACT; DNA, 3' {3IABkFQ}, backbone not given here)
- background signal of inactive sequence ([2]; both fluorophore and quencher labels): minimum background signal

Molecule: Cu2 iE polyT: inactive enzyme strand (TTTCGCCATCTTCTTTTTTTTATAGTGACT; DNA, backbone not given here; further chemistry not fully specified)
- activity of inactive sequences to fluorophore labeled substrates [2]: minimum activity

Molecule: COC(=O)CNC(=O)C(=O)OC [DMOG]
- Fe^3+/Fe^2+ ratio (Fe redox) with elevation of NCOA4 (cultured cell lines; cells incubated with NCOA4 stimulator): increase

Molecule: [Cl-].[Cl-].[Co+2] [CoCl2]
- Fe^3+/Fe^2+ ratio (Fe redox) with elevation of NCOA4 (cultured cell lines): increase

Molecule: Fe^3+ B12 Substrate C15A (CTCTATTAGGGAGAATCGCATGCCGC; listed as DNA, chemistry not fully specified)
- activity of mutated substrate strand normalized to original Fe^3+ B12 Substrate [1]: heightened activity

Molecule: Cu2 iE complement: inactive enzyme strand (TTTCGCCATCTTCTGGTCCTTATAGTGACT; DNA, backbone not given here; further chemistry not fully specified)
- activity of inactive sequences to fluorophore labeled substrates [2]: minimum activity

Molecule: CC(=O)N(O)CCCCCNC(=O)CCC(=O)N(O)CCCCCNC(=O)CCC(=O)N(O)CCCCCN [DFO, deferoxamine, reference compound]
- decrease of the Fe^3+/Fe^2+ ratio (HepG2 or Hela cells): 2.4 fold

Molecule: S=C(S)N1CCCC1 [PDTC, pyrrolidine dithiocarba-mate]
- fluorescence signal of both Cu^+ and Cu^2+ sensor (SH-SY5Y cells; 50 PM PDTC): significant increase
- fluorescence signal of both Cu^+ and Cu^2+ sensor (SH-SY5Y cells; addition of PDTC with Cu^2+, dose-dependent manner): increased

Molecule: Cc1cc(-c2ccc(S(=O)(=O)O)cc2)c2ccc3c(-c4ccc(S(=O)(=O)O)cc4)cc(C)nc3c2n1 [BCS, bathocuproine disulphonate]
- fluorescence intensity of copper DNAzyme (SH-SY5Y cells; 150 μM or 200 μM BCS overnight): significant decrease

Molecule: Aβ40 oligomers: oligomeric aggregation state of Aβ40
- fluorescence intensity of Cu^+ and Cu^2+ DNAzyme (SH-SY5Y cells; 10 μM, 24 h): significantly increased

B1: Fe^2+ H5 DNAzyme Combo 41 (nucleic acid)
chain: TGGATATCTCCTAGCCAGACTGTTATGTGTGATACGGCGCACTTCGTGATCGCCCTACGGGTCCG
modifications: DNA, backbone not given here
- relative activity of combined point mutations versus original [3]: increased the relative activity
